ChEMBL document CHEMBL3227965, “Synthesis of 5-selenium-substituted uracil derivatives. Inhibition of thymidylate synthetase by 5-hydroseleno-2'-deoxyuridylate” (J Med Chem, 1979)
pKi: −log10 of the molar value. Calls of active or inactive are those of the source. The calls are words filed in the database; no cut-off is given here.

Columns and labels:
Thymidylate synthase [1] = biological target: T1, Thymidylate synthase (Lactobacillus casei, UniProt P00469); experiment: Inhibition of dichloromethotrexate-resistant Lactobacillus casei thymidylate synthase by Dixon plot method; parameters: species or system Lacticaseibacillus casei
T1 sequence (P00469 whole entry): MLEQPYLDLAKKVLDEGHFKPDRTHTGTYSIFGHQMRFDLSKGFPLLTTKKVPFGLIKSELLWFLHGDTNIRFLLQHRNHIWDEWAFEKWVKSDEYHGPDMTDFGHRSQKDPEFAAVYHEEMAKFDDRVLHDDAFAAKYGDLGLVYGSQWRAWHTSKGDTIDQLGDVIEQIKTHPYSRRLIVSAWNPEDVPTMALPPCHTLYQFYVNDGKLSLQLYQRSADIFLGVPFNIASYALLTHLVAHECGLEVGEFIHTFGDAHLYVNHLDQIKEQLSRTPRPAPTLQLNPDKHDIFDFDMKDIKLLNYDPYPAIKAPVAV

Thymidylate synthase [2] = biological target: T1, Thymidylate synthase; experiment: Reversible competitive inhibition of dichloromethotrexate-resistant Lactobacillus casei thymidylate synthase using […] as substrate by Dixon plot method; parameters: species or system Lacticaseibacillus casei; conditions: read-out: Ki(app)
L1210 [3] = experiment: Cytotoxicity against mouse L1210 cells assessed as growth inhibition at 5 x 10^-6 M; assay type: functional, cell-based
L1210 [4] = experiment: Cytotoxicity against mouse L1210 cells assessed as growth inhibition at 10^-4 M; assay type: functional, cell-based

O=c1[nH]c(=O)n([C@H]2C[C@H](O)[C@@H](COP(=O)(O)O)O2)cc1S gave a pKi (Thymidylate synthase [1]) of 7.32.
Work on O=c1[nH]c(=O)n([C@H]2C[C@H](O)[C@@H](COP(=O)(O)O)O2)cc1[SeH] yielded a pKi (Thymidylate synthase [2]) of 7.22.
In the case of O=c1[nH]c(=O)n([C@H]2C[C@H](O)[C@@H](CO)O2)cc1S, the Activity (L1210 [3]) was “Active”.
In the case of O=c1[nH]c(=O)n([C@H]2C[C@H](O)[C@@H](CO)O2)cc1[Se][Se]c1cn([C@H]2C[C@H](O)[C@@H](CO)O2)c(=O)[nH]c1=O, the Activity (L1210 [4]) was “inactive”.
